From patent US20240327364A1, “THERAPEUTIC TARGETING OF GPR68 TO INDUCE FERROPTOSIS” (University Of Maryland, Baltimore, priority 2023, published 2024)
Read-outs that look alike come from different tables or passages of the source.

What was measured:
[1] = target: T1, ABL1(Q252H)-nonphosphorylated (Homo sapiens, UniProt P00519, Q252H); assay: KinomeScan; type: binding; conditions: read-out: % Control
T1 construct: purchased DiscoveRx

[2] = target: T2, TYK2(JH1domain-catalytic) (Homo sapiens, UniProt P29597); assay: KinomeScan; type: binding; conditions: read-out: % Control
T2 construct: TYK2(JH1domain-catalytic); purchased DiscoveRx
T2 sequence (P29597 897-1176 limits assumed): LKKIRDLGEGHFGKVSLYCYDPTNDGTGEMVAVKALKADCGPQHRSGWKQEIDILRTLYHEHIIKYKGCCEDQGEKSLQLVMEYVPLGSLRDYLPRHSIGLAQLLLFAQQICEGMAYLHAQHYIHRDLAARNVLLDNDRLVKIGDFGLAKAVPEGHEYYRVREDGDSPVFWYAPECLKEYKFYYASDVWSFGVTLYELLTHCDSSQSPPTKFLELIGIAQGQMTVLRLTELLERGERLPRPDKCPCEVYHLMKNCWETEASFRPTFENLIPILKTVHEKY

GSK3B = target: T3, GSK3B (Homo sapiens, UniProt P49841); assay: KinomeScan; type: binding; conditions: read-out: % Control
T3 construct: purchased DiscoveRx (Fremont, CA)
T3 sequence (P49841 whole entry): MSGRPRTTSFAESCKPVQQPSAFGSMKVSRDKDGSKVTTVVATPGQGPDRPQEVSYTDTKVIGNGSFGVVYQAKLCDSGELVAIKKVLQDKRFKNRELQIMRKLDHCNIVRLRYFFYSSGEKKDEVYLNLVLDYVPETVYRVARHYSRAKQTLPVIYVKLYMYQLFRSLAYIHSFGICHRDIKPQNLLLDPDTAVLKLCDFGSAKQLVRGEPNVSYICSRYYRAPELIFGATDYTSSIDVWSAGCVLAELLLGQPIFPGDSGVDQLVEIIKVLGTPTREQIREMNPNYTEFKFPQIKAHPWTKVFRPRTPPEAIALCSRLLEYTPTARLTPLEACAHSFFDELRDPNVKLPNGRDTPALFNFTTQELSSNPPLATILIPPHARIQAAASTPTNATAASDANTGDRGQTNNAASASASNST

PC-3 = assay: Cell Titer-Glo viability, Prostate adenocarcinoma; type: cell-based; conditions: for CC50: Homo sapiens, read-out: LC50 (the source's name)
Procedure: OGM2 kills wide variety of cancer cell types. Cell sensitivity can be classified in to Very Sensitive (LC50<2 μM), Sensitive (LC50=2 to 10 μM), Mildly Sensitive (LC50>10 μM), and Refractory (no killing at 10 μM). The listed established cell were incubated with OGM2 at 2 μM or 10 μM for 72 hours under standard cell culture conditions, and relative cell number was assessed using Cell Titer-Glo Luminescent Cell Viability Assay (Promega™) following the manufacturer's instructions. Luminescence was determined using a Cytation 5 reader and Gen5 software package (BioTek™).
Cancer cells, which are very sensitive to killing by OGM2 (LCs <2 μM), with reported mRNA expression of GPR68 and the related proton sensing receptor GPR4. LC50's (concentrations causing 50% lethality) were determined using CellTiter-Glo (Promega™, G7570). Cells were plated in 12-well plates (CELLTREAT Scientific Products, 229112) in 1 ml of DMEM with high glucose, GlutaMAX, HEPES, or RPMI 1640 with Penicillin-Streptomycin (ThermoFisher™, 10564029, 11875119 and 15140122) and 10% FBS. Cells were incubated overnight at 37° C. in 5% CO2. Then 1 mL of fresh media was added with DMSO, OGM, or positive control (Erastin; APExBIO Technology, LLC, B1524) and cells incubated for 3 days. On the third day, all media was removed, cells were rinsed with 1×PBS, PBS was removed, and 200 μL of 1× Passive Lysis Buffer (Promega™, E1941) was added to each well. […]. Subsequently, 20 μL of lysate was added to 100 μL CellTiter-Glo™ reagent on a LUMITRAC 200 plate (Greiner™ bio-one, 82050-726). Plates were briefly spun down and read on a GloMax-Multi Detection System (Promega™).
The cells listed in the tables above were incubated with OGM2 at 2 μM or 10 μM for 72 hours under standard cell culture conditions, and relative cell number was assessed using Cell Titer-Glo Luminescent Cell Viability Assay (Promega™) following the manufacturer's instructions. Luminescence was determined using a Cytation 5 reader and Gen5 software package (BioTek™). RNA expression of GPR68 and GPR4 in the corresponding cancer cell lines are listed, according to the publicly available The Human Protein Atlas version 22.0 and Ensembl version 103.38 (see proteinatlas.org). The consensus normalized expression value (“nTPM”=normalize transcript per million) was calculated as the maximum nTPM value for each gene in the two data sources.

GPR68 = GPR68 (Homo sapiens, UniProt Q15743); assay: SRE-luciferase assay, GPR68-transfected HEK293 cells; type: cell-based; conditions: 10 μM OGM2
Sequence of GPR68 (Q15743 whole entry): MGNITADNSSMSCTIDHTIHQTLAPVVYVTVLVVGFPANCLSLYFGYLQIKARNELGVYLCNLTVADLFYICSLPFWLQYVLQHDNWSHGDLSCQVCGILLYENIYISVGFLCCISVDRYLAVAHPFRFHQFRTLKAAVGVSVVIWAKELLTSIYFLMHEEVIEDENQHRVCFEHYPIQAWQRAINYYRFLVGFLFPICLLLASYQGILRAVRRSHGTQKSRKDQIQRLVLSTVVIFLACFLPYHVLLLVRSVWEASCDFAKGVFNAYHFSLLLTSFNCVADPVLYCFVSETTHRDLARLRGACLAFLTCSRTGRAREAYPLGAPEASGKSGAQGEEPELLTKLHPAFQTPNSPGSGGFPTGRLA
Procedure: 12-well plates of cells were transfected with 1 μg DNA using Lipofectamine 3000 with sre:luciferase and either the vector backbone, GFP, GPR68, GPR68-GFP, GPR4, or 336X-GFP. After 3 days, these cells were then lysed, and cell extracts were subjected to Steady-Glo luciferase assay (Promega™) according to the manufacturer's instructions. The results were normalized to cell titer, as determined using Cell Titer-Glo luminescence assay (Promega™). For some procedure, the cells were treated in serum-free medium, and were lysed on the third day.
Because GPR4, the paralog with highest homology with GPR68, was not covered in the initial GPCR profiling, whether OGM2 could inhibit GPR4 was tested by examining the effects of OGM2 on acid-induced serum responsive element (SRE) luciferase activity in HEK293 cells transfected with either GPR4 or GPR68. Mild acidification increased luciferase activity in GPR4 and GPR68 transfected cells above that of vector control.
Cas9^GPR68=GPR68 targeted sgRNA and Cas9; CTL=control; MoGPR68=GPR68 morpholino treatment. […] These cells were exposed to acidic media and assayed for luciferase activity as a readout of the receptor activity.

U87 = assay: Immunogenic cell death markers (CRT externalization, ATP secretion); type: cell-based, human
Procedure: OGM2 treatment of […] increases makers of immunogenic cell death (ICD, such as release of ATP into the extracellular environment ([…]) and calreticulin (CRT) externalization (FIG. 94B and FIG. 94C). Extracellular ATP content was assessed using the Enliten Atp Assay System (PROMEGA) (FIG. 94A). Calreticulin (CRT) externalization 3- and 6-hours post-treatment (see FIG. 94B and FIG. 94C) in U87 cells was assessed using immunofluorescence analysis using polyclonal antibody against calreticulin (Invitrogen™). Immunogenic cell death (ICD) is defined by expression or release of damage-associated molecular patterns (DAMPs), including extracellular ATP release and calreticulin externalization, which stimulate antitumor immune response, which in turn contributes to long-lasting protective antitumor immunity. […]
For the CRT externalization assay, U87 cells were seeded on 96-well plate, then treated with DMSO, […] (DOX), […] and […] (shown as OGM in the figures). […] Cells labelled with CRT were counted automatically with Lionheart™ automated microscope and % of CRT+ cells calculated. […]
For the ATP secretion assay, U87 cells were seeded on 96-well plate, then treated with DMSO, […] (DOX), […] and […] (OGM). At 6 hours, extracellular ATP levels were measured using the ENLITEN ATP Assay (Promega™). […]

Compound	remaining binding at 10 µM [1] [%]	remaining binding at 10 µM [2] [%]	remaining binding at 10 µM (GSK3B) [%]	Class (PC-3)	% Survival 2 μM OGM (PC-3; 72 hours) [%]	% Survival 10 μM OGM (PC-3; 72 hours) [%]	CC50 (PC-3; PC-3, 72 hours) [µM]	CC50 (PC-3; PC-3 cells, concentration causing 50% lethality) [µM]	% Survival 2 μM OGM (PC-3; PC-3 cells, 2 μM, 72 hours, Cell Titer-Glo) [%]	% Survival 10 μM OGM (PC-3; PC-3 cells, 10 μM, 72 hours, Cell Titer-Glo) [%]	Class (PC-3; Table 13)	acid-induced SRE-luciferase activity (GPR68)	externalization of CRT (U87; 3 hours of treatment)	secretion of ATP (U87; 6 hours)
CCc1ccc2c(c1)C1(NN=C(c3cccc4ccccc34)S1)C(=O)N2 (centres unmarked) [OGM1, 5-ethyl-5′-naphthalen-1-ylspiro[1H-indole-3,2′-3H-1,3,4-thiadiazole]-2-one]	84	77	83	–	–	–	–	–	–	–	–	–	–	–
CCc1ccc2c(c1)C1(NN=C(c3ccccc3)S1)C(=O)N2 (centres unmarked) [OGM2]	–	–	–	Mildly	101.3	74.5	> 10	> 10	101.3	74.5	Low	completely inhibited the signal	significant externalization of CRT	secretion of ATP
